The source of these data is ChEMBL document CHEMBL1148090, “Antibacterial and antifungal sulfated alkane and alkenes from the hepatopancreas of the ascidian Halocynthia roretzi” (1994).

One assay deals with Vibrio alginolyticus. In words: Antimicrobial activity against Vibrio alginolyticus ATCC 17749 at 0.2 ug/disk after 24 hrs by paper disk method. The assay is classed as functional. As to conditions: ATCC 17749, 24 h, read-out: IZ.
The next assay has as its system Umbelopsis ramanniana. Nature of the assay: Antimicrobial activity against Mortierella ramanniana at 0.2 ug/disk after 24 hrs by paper disk method. The assay is classed as functional. As to conditions: read-out: IZ.

As to `CC(C)CCCC(C)COS(=O)(=O)O` (stereo not drawn), the results for the zone of inhibition at 0.2 µg/disc in the assay with Vibrio alginolyticus and in the assay with Umbelopsis ramanniana were 12 mm and 10 mm, respectively.
Regarding `CC/C=C\C/C=C\CCCOS(=O)(=O)O`, the zone of inhibition at 0.2 µg/disc in the assay on Vibrio alginolyticus came out at 12 mm; with Umbelopsis ramanniana, 10 mm.
For `CC/C=C/C/C=C\CCCOS(=O)(=O)O`, the zone of inhibition at 0.2 µg/disc in the assay with Vibrio alginolyticus was 12 mm; in the assay with Umbelopsis ramanniana, 10 mm.
`C=CC/C=C\C/C=C\CCOS(=O)(=O)O`: the values for the zone of inhibition at 0.2 µg/disc with Vibrio alginolyticus and with Umbelopsis ramanniana were 12 mm and 10 mm, respectively.
